ChEMBL document CHEMBL5357021, “Novel Triazolopyridine-Based BRD4 Inhibitors as Potent HIV-1 Latency Reversing Agents” (ACS Med Chem Lett, 2024)
The source made the active and inactive calls. The calls are words filed in the database; no cut-off is given here.

Legend:
[1] = Cytotoxicity against human non-infected J-Lat A10.6 cells assessed as cell death by CCK8 assay; assay type: toxicity, cell-based, J-Lat 10.6
[2] = test system: Human immunodeficiency virus 1; test: Reversal of HIV-1 latency in ACH-2 cell line contains complete HIV-1 provirus assessed as reactivation by measuring HIV-1 p24 antigen expression 5 uM measured after 48 hrs by ELISA; assay type: functional, organism-based
[3] = molecular target: Bromodomain-containing protein 4 (Homo sapiens) (UniProt O60885); test: Inhibition of BRD4 BD2 domain (unknown origin) at 1 uM by HTRF assay
[4] = molecular target: Bromodomain-containing protein 4 (Homo sapiens) (UniProt O60885); test: Inhibition of BRD4 BD1 domain (unknown origin) at 1 uM by HTRF assay
[5] = test system: Human immunodeficiency virus 1; test: Reversal of HIV-1 latency in CD4+ T-lymphoid J-Lat cells contains HIV-1 long terminal repeats (LTR)-Tat-GFP assessed as reactivation measured after 48 hrs by flow cytometry; assay type: functional, organism-based; settings: Human immunodeficiency virus 1, J-Lat 10.6, 48 h

SMILES	inhibition [3]	inhibition [4]	EC50 [5] [µM]	CC50 [1] [µM]	Activity [2]
Cc1nnc2ccc(-c3cc(NS(=O)(=O)C4CC4)ccc3Oc3ccc(F)cc3F)cn12	Active	Active	4.3	> 50	Active
Cc1nnc2ccc(-c3cc(NC(=O)C4CC4)ccc3Oc3ccc(F)cc3F)cn12			> 50	> 50	
Cc1nnc2ccc(-c3cc(NS(=O)(=O)c4cccc(Br)c4)ccc3Oc3ccc(F)cc3F)cn12	Active	Active	17.2	> 50	
Cc1nnc2ccc(-c3cc(NS(=O)(=O)c4ccc(Br)cc4)ccc3Oc3ccc(F)cc3F)cn12			> 50	43.9	
COC(=O)CCCCCCC(=O)Nc1ccc(Oc2ccc(F)cc2F)c(-c2ccc3nnc(C)n3c2)c1			> 50	> 50	
Cc1nnc2ccc(-c3cc(NS(=O)(=O)c4ccc(C(F)(F)F)cc4)ccc3Oc3ccc(F)cc3F)cn12			> 50	> 50	
Cc1nnc2ccc(-c3cc(NC(=O)C(C)(C)C)ccc3Oc3ccc(Cl)cc3F)cn12			> 50	32.9	
CCCS(=O)(=O)Nc1ccc(Oc2ccc(F)cc2F)c(-c2ccc3nnc(C)n3c2)c1	Active	Active	5.4	44.7	
COc1ccc(S(=O)(=O)Nc2ccc(Oc3ccc(F)cc3F)c(-c3ccc4nnc(C)n4c3)c2)cc1	Active	Active	6.8	> 50	
CCS(=O)(=O)Nc1ccc(Oc2ccc(Cl)cc2Cl)c(-c2ccc3nnc(C)n3c2)c1					Active
CCS(=O)(=O)Nc1ccc(Oc2ccc(F)cc2F)c(-c2cn(C)c(=O)c3[nH]ccc23)c1	Active	Active			Active
Cc1nnc2ccc(-c3cc(NS(=O)(=O)c4ccccc4)ccc3Oc3ccc(F)cc3F)cn12	Active	Active	> 50	> 50	

The next lines start with results.

inhibition [3]	inhibition [4]	EC50 [5] [µM]	SMILES	CC50 [1] [µM]	Activity [2]
Active	Active	5.6	CCS(=O)(=O)Nc1ccc(Oc2ccc(Cl)cc2F)c(-c2ccc3nnc(C)n3c2)c1	12.3	Active
Active	Active		Cc1nnc2ccc(-c3cc(NS(=O)(=O)c4cccs4)ccc3Oc3ccc(Cl)cc3F)cn12		Active
		> 50	Cc1ccc(S(=O)(=O)Nc2ccc(Oc3ccc(F)cc3F)c(-c3ccc4nnc(C)n4c3)c2)cc1	> 50	
		> 50	COC(=O)CCCCCCC(=O)Nc1ccc(Oc2ccc(Cl)cc2F)c(-c2ccc3nnc(C)n3c2)c1	> 50	
Active	Active	17.7	Cc1nnc2ccc(-c3cc(NS(=O)(=O)c4ccc(Cl)cc4)ccc3Oc3ccc(F)cc3F)cn12	> 50	
		> 50	Cc1nnc2ccc(-c3cc(NC(=O)CCCCCCC(=O)NO)ccc3Oc3ccc(F)cc3F)cn12	> 50	
Active	Active	2	C=CS(=O)(=O)Nc1ccc(Oc2ccc(Cl)cc2F)c(-c2ccc3nnc(C)n3c2)c1	44.2	
Active	Active		Cn1cc(-c2cc(NS(=O)(=O)c3ccc(F)cc3)ccc2Oc2ccc(Cl)cc2F)c2cc[nH]c2c1=O		
		> 50	Cc1nnc2ccc(-c3cc(NS(=O)(=O)c4ccc([N+](=O)[O-])cc4)ccc3Oc3ccc(F)cc3F)cn12	> 50	
		17.8	CCC(=O)Nc1ccc(Oc2ccc(F)cc2F)c(-c2ccc3nnc(C)n3c2)c1	> 50	
		> 50	COc1ccc(Br)cc1S(=O)(=O)Nc1ccc(Oc2ccc(F)cc2F)c(-c2ccc3nnc(C)n3c2)c1	> 50	
		13.4	Cc1nnc2ccc(-c3cc(NC(=O)CCCCCCC(=O)NO)ccc3Oc3ccc(Cl)cc3F)cn12	28.7	
